Article PMC5840146, “Structure-Activity Relationship Analysis of 3-Phenylcoumarin-Based Monoamine Oxidase B Inhibitors” (Frontiers in Chemistry, 2018)
Several values for one entry are separate records, joined by “and”; a condition that tells them apart may be missing. Equal values may be shown once. Read-outs that look alike come from different tables or passages of the source.

Tests used:
Assay type in all cases: biochemical
MAO-B = target: T1, MAO-B (Homo sapiens, UniProt P27338); assay: continuous spectrophotometric MAO-B inhibition assay; conditions: for LiPE: LiPE = pIC50 - QPlogPo/w, new analogs and pargyline; for IC50: duplicates; for MAO-B inhibition %: 10 µM, 2h
T1 construct: purchased Sigma-Aldrich
T1 sequence (P27338 1-520): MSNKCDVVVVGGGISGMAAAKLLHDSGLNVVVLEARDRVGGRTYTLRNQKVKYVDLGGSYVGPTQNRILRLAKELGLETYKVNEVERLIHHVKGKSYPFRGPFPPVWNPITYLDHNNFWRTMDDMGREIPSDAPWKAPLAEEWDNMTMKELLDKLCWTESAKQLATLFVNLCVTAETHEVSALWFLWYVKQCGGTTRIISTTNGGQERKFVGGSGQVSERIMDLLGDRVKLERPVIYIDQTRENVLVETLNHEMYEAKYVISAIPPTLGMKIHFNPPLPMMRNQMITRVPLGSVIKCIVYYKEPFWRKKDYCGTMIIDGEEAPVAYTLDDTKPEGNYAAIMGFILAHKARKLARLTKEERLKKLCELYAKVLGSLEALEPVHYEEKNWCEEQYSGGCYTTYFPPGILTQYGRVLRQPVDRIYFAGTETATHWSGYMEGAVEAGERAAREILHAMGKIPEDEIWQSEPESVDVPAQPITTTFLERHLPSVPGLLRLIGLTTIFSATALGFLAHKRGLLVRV
Protocol: (§1) Both monoamine oxidase A (MAO-A) and B (MAO-B) protein and the reagents for the chromogenic solution of vanillic acid (4-hydroxy-3-methoxylbenzoic acid, 97% purity), 4-aminoantipyrine (reagent grade), horseradish peroxidase and the substrate tyramine hydrochloride (minimum 99% purity) as well as the potassium phosphate buffer, which was prepared using potassium phosphate dibasic trihydrate (≥99% ReagentPlus™) and potassium phosphate monobasic (minimum 98% purity, molecular biology tested), were purchased from Sigma-Aldrich (St. Louis, MO, USA) for the spectrophotometric assay.
(§2) The protocol for continuous spectrophotometric assay (Holt et al., [1997]) was followed in the activity measurements. The assay was performed in 0.2 M potassium phosphate buffer pH 7.6 on 96-well plates (Nunc™ 96F microwell plate without a lid, Nunc A/S, Roskilde, DK) in 200 μl total volume. The chromogenic solution containing 1 mM vanillic acid, 500 μM 4-aminoantipyrine and 8 U/ml horseradish peroxidase in 0.2 M potassium phosphate buffer pH 7.6 was mixed anew for each measurement. 5 mM tyramine solution was used as the substrate. In order to determine the activity of both MAO-B and MAO-A, concentration series as duplicates were prepared. The protein was combined with the chromogenic solution and incubated 30 min at 37°C. The background signal was measured using multilabel reader (Victor^TM X4, 2030 Multilabel Reader, PerkinElmer, Waltham, MA, USA) at A490 before reaching the total 200 μl volume by adding 20 μl of tyramine to final concentration of 0.5 mM on the plate. As a result, the final concentration of the chromogenic solution on the plate was 250 μM vanillic acid, 125 μM 4-aminoantipyrine and 2 U/ml horseradish peroxide. After adding the substrate, the plates were measured 300 times every 15 s using 1 s exposure time. The device was set to 37°C for the duration of the experiment.
(§3) The experiment conditions should produce absorbance change of ~0.35 (Holt et al., [1997]). […] The same wide panel of coumarin derivatives was additionally used to analyze the MAO-A inhibition at 100 μM (Table 1, Supplementary Table S1).
(§4) The measured data was then fitted on a curve using non-linear regression with the equation for log[inhibitor] vs. response. The IC50 values were therefore determined based on the curve fit. The fitted curves are shown on –log scale in Supplementary Figures S1, S2.

MAO-A = target: T2, MAO-A (Homo sapiens, UniProt P21397); assay: continuous spectrophotometric MAO-A inhibition assay; conditions: for MAO-A inhibition %: 100 µM, 1h
T2 construct: purchased Sigma-Aldrich
T2 sequence (P21397 1-527): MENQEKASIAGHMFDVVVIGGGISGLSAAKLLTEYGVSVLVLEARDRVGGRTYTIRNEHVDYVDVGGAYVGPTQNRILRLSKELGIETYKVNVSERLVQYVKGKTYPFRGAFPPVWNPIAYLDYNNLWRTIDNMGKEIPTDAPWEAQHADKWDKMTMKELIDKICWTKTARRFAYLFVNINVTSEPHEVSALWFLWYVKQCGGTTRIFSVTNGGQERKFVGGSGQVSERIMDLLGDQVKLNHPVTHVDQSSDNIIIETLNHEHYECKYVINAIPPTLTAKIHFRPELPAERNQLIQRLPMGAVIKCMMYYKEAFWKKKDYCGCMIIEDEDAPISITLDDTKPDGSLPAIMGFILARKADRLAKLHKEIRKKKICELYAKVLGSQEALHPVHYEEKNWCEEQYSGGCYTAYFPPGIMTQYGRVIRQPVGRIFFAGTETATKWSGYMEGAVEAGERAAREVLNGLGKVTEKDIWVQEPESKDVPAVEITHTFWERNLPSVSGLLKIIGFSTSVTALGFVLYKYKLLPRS
Protocol: as §1, §2, §3, §4

recombinant human HSD1 = target: T3, recombinant human HSD1 (Homo sapiens, UniProt P14061); assay: HSD1 inhibition by HPLC with tritium labeled estrone/estradiol; conditions: for inhibition at 1 µM / HSD1 inhibition %: 1 μM
T3 construct: made in house; host or cells: Sf9 insect cells
T3 sequence (P14061 1-328): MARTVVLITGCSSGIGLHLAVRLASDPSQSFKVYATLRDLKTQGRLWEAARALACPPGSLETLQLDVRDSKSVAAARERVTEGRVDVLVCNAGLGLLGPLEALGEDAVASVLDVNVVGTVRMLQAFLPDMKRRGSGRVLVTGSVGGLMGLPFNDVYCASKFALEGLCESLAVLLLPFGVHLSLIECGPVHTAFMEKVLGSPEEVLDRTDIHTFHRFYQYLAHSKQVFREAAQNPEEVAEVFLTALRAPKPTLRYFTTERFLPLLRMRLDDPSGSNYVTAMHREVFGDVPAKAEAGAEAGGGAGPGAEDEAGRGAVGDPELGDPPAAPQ

human CYP1A2 = target: T4, human CYP1A2 (Homo sapiens, UniProt P05177); assay: CYP1A2 inhibition, 7-ethoxyresorufin fluorescence assay
T4 construct: purchased Corning Inc
T4 sequence (P05177 1-516): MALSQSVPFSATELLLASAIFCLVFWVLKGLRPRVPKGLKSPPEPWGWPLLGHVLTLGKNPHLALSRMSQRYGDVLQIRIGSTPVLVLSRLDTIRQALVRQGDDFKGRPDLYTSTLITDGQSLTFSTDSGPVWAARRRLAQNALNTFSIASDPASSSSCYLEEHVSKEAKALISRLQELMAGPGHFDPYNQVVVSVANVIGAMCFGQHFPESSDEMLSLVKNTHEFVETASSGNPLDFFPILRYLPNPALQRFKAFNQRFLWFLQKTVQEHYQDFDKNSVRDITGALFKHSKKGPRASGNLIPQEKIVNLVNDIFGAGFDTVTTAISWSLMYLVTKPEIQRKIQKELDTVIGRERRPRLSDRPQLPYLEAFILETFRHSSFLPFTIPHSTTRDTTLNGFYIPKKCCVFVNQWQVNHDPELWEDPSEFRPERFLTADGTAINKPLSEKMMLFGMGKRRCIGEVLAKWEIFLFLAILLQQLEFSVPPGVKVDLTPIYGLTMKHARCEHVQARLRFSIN
Protocol: Inhibition of CYP1A2 activity was determined with commercial heterologously expressed human CYP1A2 enzyme (Corning Inc., Corning, NY, USA) as described earlier (Korhonen et al., [2005]). The metabolic activity was not in the scope of this particular study. The assay was adapted to the 96-well plate format. In each well, a 150 μL incubation volume contained 100 mM Tris-HCl buffer (pH 7.4), 4.2 mM MgCl2,1 μM 7-ethoxyresorufin, 0.5 pmol of cDNA expressed CYP1A2, […] inhibitor, and a NADPH-generating system. All inhibitors were dissolved in ethanol, and the final concentration of ethanol was 2% in all incubations. The reaction was initiated by adding the NADPH-regenerating system after a 10 min preincubation at 37°C, and after a 20 min incubation, the reaction was terminated by the addition of 110 μL of 80% acetonitrile/20% 0.5 M Tris base. The formed fluorescence was measured with a Victor2 plate counter (Perkin-Elmer Life Sciences Wallac, Turku, Finland) at 570 nm excitation and 616 nm emission.

[1] = dilution series 50 μM to 1 nM, read-out: MAO-B inhibition IC50

| Compound | inhibition at 10 µM (MAO-B) | LiPE (MAO-B) | inhibition at 100 µM (MAO-A; 100 μM) | inhibition at 1 µM (recombinant human HSD1) | IC50 (human CYP1A2) | IC50 (MAO-B; [1]) | MAO-B inhibition % (MAO-B) | MAO-A inhibition % (MAO-A) | HSD1 inhibition % (recombinant human HSD1) | MAO-B inhibition (in words) (MAO-B) | IC50 (MAO-B; MAO-B inhibition IC50, dilution series 50 μM to 1 nM) | MAO-A inhibition (in words) (MAO-A; 100 μM) | HSD1 inhibition (in words) (recombinant human HSD1) |
| --- | --- | --- | --- | --- | --- | --- | --- | --- | --- | --- | --- | --- | --- |
| COc1ccc2oc(=O)c(-c3ccc(C(F)(F)F)cc3)cc2c1 [derivative 1, 6-methoxy-3-(4-(trifluoromethyl)phenyl)-2H-chromen-2-one] | 99.5% | 3.17 | 0% | 0% | 124 µM | – | – | – | – | – | ~0.056 µM and 0.05 to 0.06 µM and 0.056 µM | does not produce MAO-A inhibition | does not inhibit HSD1 |
| COc1ccc(-c2cc3ccc(OC(C)=O)cc3oc2=O)cc1 [derivative 13, 3-(4-methoxyphenyl)-2-oxo-2H-chromen-7-yl acetate] | 85.9% | 3.30 | 2.48% | 0% | 570 µM | 1.95 µM | – | – | – | – | – | – | – |
| COc1ccc2oc(=O)c(-c3ccc(OC(F)(F)F)cc3)cc2c1 [derivative 4, 6-methoxy-3-(4-(trifluoromethoxy)phenyl)-2H-chromen-2-one] | 102% | 2.28 | 0% | 0% | 7 µM | 0.317 µM | – | – | – | – | – | – | – |
| COc1cc(OC)cc(-c2cc3cc(OC)ccc3oc2=O)c1 [derivative 9, 3-(3,5-dimethoxyphenyl)-6-methoxy-2H-chromen-2-one] | 80.2% | 3.38 | 0% | 0% | 84 µM | ~0.255 µM and 0.255 µM | – | – | – | – | – | – | – |
| COc1ccc(-c2cc3cc(OC(C)=O)ccc3oc2=O)cc1 [derivative 14, 3-(4-methoxyphenyl)-2-oxo-2H-chromen-6-yl acetate] | 75.8% | 2.73 | – | 1% | 87.5 µM | 8.48 µM | – | – | – | – | – | – | – |
| CC(=O)Oc1ccc(-c2cc3cc(Cl)cc(Cl)c3oc2=O)cc1F [derivative 7, 4-(6,8-dichloro-2-oxo-2H-chromen-3-yl)-2-fluorophenyl acetate] | 91% | 2.69 | 0% | 0% | 46 µM | 0.888 µM | – | – | – | – | – | – | – |
| COc1ccc(-c2cc3cc(Cl)cc(Cl)c3oc2=O)cc1 [derivative 32] | – | – | – | – | 800 µM | – | 47.77% | 0.00% | – | – | – | – | – |
| COc1ccc2cc(-c3ccc(OC(C)=O)c(F)c3)c(=O)oc2c1 [derivative 6, 2-fluoro-4-(7-methoxy-2-oxo-2H-chromen-3-yl)phenyl acetate] | 99.9% | 4.25 | 0% | 21% | – | ~0.189 µM and 0.189 µM | – | – | – | – | – | – | – |
| CC(=O)Oc1ccc2cc(-c3ccc(OC(F)(F)F)cc3)c(=O)oc2c1 [derivative 3, 2-oxo-3-(4-(trifluoromethoxy)phenyl)-2H-chromen-7-yl acetate] | 100% | 3.52 | 22% | 0% | 280 µM | ~0.141 µM and 0.141 µM | – | – | – | – | – | – | – |
| C#CCN(C)Cc1ccccc1 [pargyline, reference compound] | 102% | – | – | – | – | – | – | – | – | – | – | – | – |

Continued, in another order:

| inhibition at 10 µM (MAO-B) | LiPE (MAO-B) | inhibition at 100 µM (MAO-A; 100 μM) | inhibition at 1 µM (recombinant human HSD1) | IC50 (human CYP1A2) | IC50 (MAO-B; [1]) | MAO-B inhibition % (MAO-B) | MAO-A inhibition % (MAO-A) | HSD1 inhibition % (recombinant human HSD1) | MAO-B inhibition (in words) (MAO-B) | Compound | IC50 (MAO-B; MAO-B inhibition IC50, dilution series 50 μM to 1 nM) | MAO-A inhibition (in words) (MAO-A; 100 μM) | HSD1 inhibition (in words) (recombinant human HSD1) |
| --- | --- | --- | --- | --- | --- | --- | --- | --- | --- | --- | --- | --- | --- |
| – | – | – | – | 480 µM | – | 39.78% | 0.00% | 0.00% | – | COc1ccc(-c2cc3ccc(OC)cc3oc2=O)cc1 [derivative 37] | – | – | – |
| – | – | – | – | 30 µM | – | 46.01% | 0.00% | 0.30% | – | COc1cc(OC)cc(-c2cc3cc(Cl)cc(Cl)c3oc2=O)c1 [derivative 34] | – | – | – |
| – | – | – | – | 26 µM | – | 42.37% | 4.08% | 0.00% | – | COc1ccc(-c2cc3cccc(OC(C)=O)c3oc2=O)cc1 [derivative 35] | – | – | – |
| – | – | – | – | 80 µM | – | 0.00% | 0.00% | 0.70% | activity is lost | CC(=O)Oc1ccc2cc(-c3ccccc3)c(=O)oc2c1 [derivative 52] | – | – | – |
| – | – | – | – | 17 µM | – | 15.81% | 22.33% | 0.00% | – | CC(=O)Oc1cccc2cc(-c3ccc(F)cc3)c(=O)oc12 [derivative 47] | – | – | – |
| – | – | – | – | 3 µM | – | 6.66% | 0.00% | 31.60% | – | COc1ccc2cc(-c3cccc(OCc4ccccc4)c3)c(=O)oc2c1 [derivative 51] | – | – | – |
